Measurements taken from ChEMBL document CHEMBL4725482, “In Silico-Guided Identification of New Potent Inhibitors of Carbonic Anhydrases Expressed in Vibrio cholerae” (ACS Med Chem Lett, 2020).
pKi: −log10 of the molar value.

Legend:
Carbonic anhydrase 1 = Carbonic anhydrase 1 (Homo sapiens, UniProt P00915)
Carbonic anhydrase 2 = Carbonic anhydrase 2 (Homo sapiens, UniProt P00918)

Chain of Carbonic anhydrase 1 (P00915 whole entry): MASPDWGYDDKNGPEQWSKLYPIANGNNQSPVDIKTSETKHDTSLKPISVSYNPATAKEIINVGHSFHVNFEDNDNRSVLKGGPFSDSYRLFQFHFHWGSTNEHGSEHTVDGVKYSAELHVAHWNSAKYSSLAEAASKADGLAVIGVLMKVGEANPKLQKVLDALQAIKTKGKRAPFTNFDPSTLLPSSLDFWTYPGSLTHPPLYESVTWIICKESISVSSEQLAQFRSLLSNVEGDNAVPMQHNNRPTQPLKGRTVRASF

SMILES	pKi (Carbonic anhydrase 1)	pKi (Carbonic anhydrase 2)
NS(=O)(=O)c1ccc(CNC(=O)Cc2ccccc2F)cc1	6.57	7.58
NS(=O)(=O)c1ccc(CNC(=O)c2ccc(Br)cc2)cc1	7.02	7.20
NS(=O)(=O)c1ccc(CNC(=O)c2ccccc2Cc2ccccc2)cc1	7.01	7.26
CSCCC(=O)NCc1ccc(S(N)(=O)=O)cc1	6.24	7.16
Cc1cccc(C(=O)NCc2ccc(S(N)(=O)=O)cc2)c1	7.22	8.48
NS(=O)(=O)c1ccc(CNC(=O)c2cccc(Cl)c2)cc1	7.18	8.29
NS(=O)(=O)c1ccc(CNC(=O)c2ccc(-c3ccccc3)cc2)cc1	5.68	6.04
NS(=O)(=O)c1ccc(CNC(=O)c2ccsc2)cc1	7.35	7.08
NS(=O)(=O)c1ccc(CNC(=O)c2cc(Cl)ccc2Cl)cc1	7.11	7.50
